Laboratory results as given in US6410516B1.

Tests used:
NF-κB = assay: GTP stimulation of NF-κB complex formation in the binding assay; type: biochemical; details: GTP 3 mM added to the binding assay; virus-induced extracts
AP-1 in HeLa cells = assay: TPA stimulation, AP-1 DNA-binding activity in HeLa subcellular fractions; type: cell-based, human
Excerpt: FIG. 28 represents analysis of subcellular fractions for DNA-binding activity of the TPA-inducible transcription factor AP-1. Equal cell-equivalents of nuclear extracts (N) and cytosolic fractions (C) from 70Z/3 and HeLa cells were used in mobility shift assays. AP-1 specific DNA-binding activity was detected using an end-labeled EcoRI-HindIII fragment from the yeast HIS 4 promoter containing three binding sites for GCN4 recognized by mammalian AP-1. The three protein-DNA complexes seen on shorter exposures of the fluorogram are indicated by filled arrowheads and the position of unbound DNA-fragment by an open arrowhead.

endogenous κ gene = assay: Northern blot, endogenous κ gene expression in 70Z/3 cells; type: cell-based, mouse; details: PMA 50 ng/ml, LPS 15 μg/ml or Sendai virus, 0 to 20 hr
Description: (§1) FIG. 42C presents results of Northern blot analyses of 70Z/3 cells treated with various inducers.
(§2) RNA preparation and Northern blot analysis were carried out as previously described by Zinn et al., Cell, 34, 865-879 (1983).

endogenous β-IFN mRNA = assay: Northern blot, endogenous β-IFN mRNA in 70Z/3 cells; type: cell-based, mouse; details: PMA 50 ng/ml, LPS 15 μg/ml or Sendai virus, 0 to 20 hr
Description: as §1, §2

NF-KB in 70Z/3 cells = assay: TPA stimulation, subcellular fractions of 70Z/3 cells (mobility shift assay); type: cell-based, mouse; details: TPA-stimulated cells; fractions treated with formamide and DOC; densitometric scanning
Description: Nuclear extracts, cytosolic and postnuclear membrane fractions were analyzed at equal amounts of protein in an electrophoretic mobility shift assay, described in Example 1, followed by fluorography.
To examine whether the form of NF-kB detected after in vitro activation in the cytosolic fraction could quantitatively account for the NF-kB found in nuclear extracts after TPA stimulation of cells, subcellular fractions of 70Z/3 cells were reinvestigated in mobility shift assays after treatment with formamide and DOC using equal cell-equivalents of subcellular fractions. Equal cell-equivalents of nuclear extracts (N) and cytosolic (C) and post-nuclear membrane fractions (P) from control (Co) and TPA-stimulated cells (TPA) were left untreated (lanes 1-6 and 13-18) or subjected to a formamide/desoxycholate treatment (Fa+DOC; lanes 7-12 and 19-24; for conditions see FIG. 31, lane 11). This treatment was preferred over the DOC/NP-40 chase treatment because it gave a higher resolution of bands in mobility shift assays. DNA-binding reactions were performed in the presence of 3.2 ug poly(d[I-C]) using 4.4 ug of protein from nuclear extracts, 8.8 ug of protein from cytosolic fractions or 2.2 ug of protein from postnuclear membrane fractions (all in 4 ul buffer D(+)). Fluorograms of native gels are shown. […]

HeLa cells = details: anisomycin at 10; cited from earlier work
70Z/3 cells = details: 10 μg/mo cycloheximide; cited from earlier work

Nc1nc2c(ncn2[C@@H]2O[C@H](COP(=O)(O)OP(=O)(O)OP(=O)(O)O)[C@@H](O)[C@H]2O)c(=O)[nH]1 [GTP]
NF-κB complex formation (NF-κB): stimulated

CCCCCCCCCCCCCC(=O)O[C@@H]1[C@@H](C)[C@@]2(O)[C@@H](C=C(CO)C[C@]3(O)C(=O)C(C)=C[C@@H]23)[C@@H]2C(C)(C)[C@]12OC(C)=O [PMA, phorbol 12-myristate-13-acetate]
AP-1 DNA-binding activity in nuclear extracts after TPA-stimulation (AP-1 in HeLa cells): did not show an increase | endogenous κ gene expression (endogenous κ gene): activation of the endogenous κ gene | endogenous β-IFN mRNA (endogenous β-IFN mRNA): not | kB-specific DNA-binding activity found in nuclear extracts (NF-KB in 70Z/3 cells): 80%

COc1ccc(C[C@H]2NC[C@H](O)[C@H]2OC(C)=O)cc1 [anisomycin]
inhibition of protein synthesis (HeLa cells): approximately 99%

C[C@@H]1C[C@@H]([C@H](O)CC2CC(=O)NC(=O)C2)C(=O)[C@@H](C)C1 [cycloheximide]
inhibition of protein synthesis (70Z/3 cells): greater than 95%
